Test results: patent US11150251B2, “Bi-functional arginine-glycine-aspartic acid (RGD) peptides and methods to promote angiogenesis” (Clemson University Research Foundation, priority 2016, dated 2021)

Tested on: HUVECs
Test: HUVEC vascular network formation in 3D multi-signaling alginate hydrogels (integrin-binding peptide + QK peptide)
Type: cell-based, human
Conditions: 5% (w/w) MMP-responsive QK peptides, preliminary data
Text: To synergize with the α1 peptide, we used the α1 peptide and an MMP-responsive QK peptide (i.e., GPQG↓IAGKLTWQELYQLKYKGI, SEQ ID NO:41) to prepare an alginate-based injectable, multi-signaling hydrogels (FIG. 9). The MMP-responsive QK peptide was selected to introduce cell-dictated local release of angiogenic factors to recapitulate the pro-angiogenic microenvironment in vivo, where matrix bound VEGF is released by MMPs. Alginates was selected because it has been used as a biocompatible, injectable hydrogel-forming material to treat ischemic diseases.
We developed a modular approach to prepare the multi-signaling hydrogels (FIG. 10). Briefly, we have prepared alginates functionalized with α1 peptide (10% (w/w)) as well as alginates functionalized with MMP-responsive QK peptide (10% (w/w)) using click chemistry. We then mixed these two alginates at a ratio 1:1 (w/w) to prepare multi-signaling hydrogels to simultaneously engage αvβ3, VLA-6 integrins and VEGFR2. This modular approach allowed us to rapidly prepare alginates with different peptide functionalization to screen for an optimal formulation to support EC morphogenesis.

Substance: GPQG↓IAGKLTWQELYQLKYKGI (GPQGIAGKLTWQELYQLKYKGI) [MMP-responsive QK peptides, QK peptide with MMP degradable linkage]
- EC vascular network formation at given QK peptide content: sufficient to promote EC vascular network formation
